Measured values: ChEMBL document CHEMBL5107989, “Design, synthesis and activity evaluation of isopropylsulfonyl-substituted 2,4- diarylaminopyrimidine derivatives as FAK inhibitors for the potential treatment of pancreatic cancer” (Eur J Med Chem, 2022)

Assays:
[1] = Cytotoxicity against human L02 cells assessed as inhibition of cell growth incubated for 72 hrs by CCK-8 assay; format: toxicity, cell-based
[2] = test system: ASPC1; assay: cells; settings: Homo sapiens, ASPC1, 72 h
Description: Antiproliferative activity against human ASPC1 cells harboring KRAS,TP53,CDKN2A and DPC4/SMAD4 mutations assessed as inhibition of cell growth incubated for 72 hrs by CCK-8 assay

[3] = test system: MIA PaCa-2; assay: cells; settings: Homo sapiens, MIA PaCa-2, 72 h
Description: Antiproliferative activity against human MIA PaCa-2 cells harboring KRAS,TP53,CDKN2A and DPC4/SMAD4 mutations assessed as inhibition of cell growth incubated for 72 hrs by CCK-8 assay

[4] = test system: NCI-H1975; assay: cells; settings: Homo sapiens, NCI-H1975, 72 h
Description: Antiproliferative activity against gefitinib-resistant human NCI-H1975 cells assessed as inhibition of cell growth incubated for 72 hrs by CCK-8 assay

[5] = test system: KM3/BTZ; assay: cells; settings: Homo sapiens, 72 h
Description: Antiproliferative activity against bortezomib- resistant human KM3/BTZ cells assessed as inhibition of cell growth incubated for 72 hrs by CCK-8 assay

[6] = test system: Raji; assay: cells; settings: Homo sapiens, 72 h
Description: Antiproliferative activity against human Raji cells assessed as inhibition of cell growth incubated for 72 hrs by CCK-8 assay

[7] = target: Focal adhesion kinase 1 (Homo sapiens, UniProt Q05397); assay: Inhibition of recombinant human FAK (393 to 698 residues) using poly (4:1 Glu, Tyr) peptide as substrate incubated for 60 mins in presence of ATP by ADP-Glo reagent based luminescent assay
Chain of Focal adhesion kinase 1 (Q05397 whole entry, the tested form may be a part): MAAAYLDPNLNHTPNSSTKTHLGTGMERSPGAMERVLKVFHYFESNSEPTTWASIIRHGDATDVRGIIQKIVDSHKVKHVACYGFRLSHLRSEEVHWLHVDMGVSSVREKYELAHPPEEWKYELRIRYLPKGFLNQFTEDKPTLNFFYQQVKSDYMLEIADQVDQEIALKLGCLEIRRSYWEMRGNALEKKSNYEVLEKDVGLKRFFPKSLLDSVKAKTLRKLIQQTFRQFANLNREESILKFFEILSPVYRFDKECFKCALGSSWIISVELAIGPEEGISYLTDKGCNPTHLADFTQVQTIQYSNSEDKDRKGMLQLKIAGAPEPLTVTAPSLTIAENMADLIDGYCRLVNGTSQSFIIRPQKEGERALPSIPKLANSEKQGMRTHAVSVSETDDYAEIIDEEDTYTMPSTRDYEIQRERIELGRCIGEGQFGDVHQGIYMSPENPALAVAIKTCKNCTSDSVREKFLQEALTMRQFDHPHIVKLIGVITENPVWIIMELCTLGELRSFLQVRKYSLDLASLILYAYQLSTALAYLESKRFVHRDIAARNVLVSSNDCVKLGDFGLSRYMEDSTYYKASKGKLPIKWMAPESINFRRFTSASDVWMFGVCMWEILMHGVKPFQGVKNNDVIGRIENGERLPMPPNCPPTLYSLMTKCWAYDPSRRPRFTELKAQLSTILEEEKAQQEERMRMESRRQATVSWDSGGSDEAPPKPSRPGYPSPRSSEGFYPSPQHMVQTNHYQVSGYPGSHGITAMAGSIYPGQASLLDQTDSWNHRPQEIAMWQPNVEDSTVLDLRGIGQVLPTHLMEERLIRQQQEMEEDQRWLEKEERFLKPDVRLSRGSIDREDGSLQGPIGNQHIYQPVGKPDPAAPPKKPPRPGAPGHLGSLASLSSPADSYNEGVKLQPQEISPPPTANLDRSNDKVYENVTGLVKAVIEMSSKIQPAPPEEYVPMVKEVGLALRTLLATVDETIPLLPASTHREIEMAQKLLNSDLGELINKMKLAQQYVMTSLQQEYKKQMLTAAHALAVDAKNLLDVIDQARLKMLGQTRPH

Row | IC50 [2] [nM] | IC50 [3] [nM] | IC50 [4] [µM] | IC50 [5] [nM] | IC50 [6] [µM] | IC50 [7] [nM] | Structure (SMILES) | IC50 at 72 h [1] [nM]
1 | 451 | 12.6 | 9.64 | > 10000 | > 10 | – | CCOC(=O)C1CCN(c2ccc(Nc3ncc(Cl)c(Nc4ccccc4S(=O)(=O)C(C)C)n3)cc2)CC1 | 980
2 | 394 | 1900 | 8.2 | 2580 | > 10 | – | CCC(C)C(CO)NC(=O)C1CCN(Cc2ccc(Nc3ncc(Cl)c(Nc4ccccc4S(=O)(=O)C(C)C)n3)cc2)CC1 (stereo not given) | 1390
3 | 916 | 2120 | 2.71 | 3680 | 1.48 | – | CC(C)S(=O)(=O)c1ccccc1Nc1nc(Nc2ccc(N3CCC(C(=O)O)CC3)cc2)ncc1Cl | 1510
4 | 4820 | 5230 | > 10 | 4390 | > 10 | – | CNC(=O)c1ccccc1Nc1nc(Nc2ccc(N3CCOCC3)cc2OC)ncc1Cl | 5210
5 | 2380 | 1170 | 4.15 | > 10000 | > 10 | – | CC(C)S(=O)(=O)c1ccccc1Nc1nc(Nc2ccc(N3CCC(C(=O)NCCCCCC(=O)NO)CC3)cc2)ncc1Cl | 755
6 | 735 | 452 | 3.51 | 2490 | 2.21 | – | CC(C)S(=O)(=O)c1ccccc1Nc1nc(Nc2ccc(CN3CCSCC3)cc2)ncc1Cl | 1140
7 | 472 | 1130 | 2.81 | 1020 | > 10 | – | CC(C)S(=O)(=O)c1ccccc1Nc1nc(Nc2ccc(CN3CCC(C(=O)O)CC3)cc2)ncc1Cl | 1270
8 | 295 | 7090 | 2.08 | 262 | 2.96 | – | CCOC(=O)C1CCN(Cc2ccc(Nc3ncc(Cl)c(Nc4ccccc4S(=O)(=O)C(C)C)n3)cc2)CC1 | 453
9 | 259 | 714 | 0.347 | 1610 | 3.27 | – | CC(C)S(=O)(=O)c1ccccc1Nc1nc(Nc2ccc(OCC(=O)N3CCOCC3)cc2)ncc1Cl | 368
10 | 3680 | 5050 | 7.51 | 2160 | 3.25 | – | CC(C)S(=O)(=O)c1ccccc1Nc1nc(Nc2ccc(NC(=O)CN3CCC(C(=O)O)CC3)cc2)ncc1Cl | 2320
11 | 989 | 5270 | 2.92 | 2320 | 1.32 | – | CCOC(=O)C1CCN(CC(=O)Nc2ccc(Nc3ncc(Cl)c(Nc4ccccc4S(=O)(=O)C(C)C)n3)cc2)CC1 | 1220
12 | 6980 | 1230 | 7.86 | 2890 | > 10 | – | CC(C)S(=O)(=O)c1ccccc1Nc1nc(Nc2ccc(CN3CCC(C(=O)NCCCCCC(=O)NO)CC3)cc2)ncc1Cl | 2990
13 | 3520 | 4760 | 2.88 | > 10000 | > 10 | – | CC(C)S(=O)(=O)c1ccccc1Nc1nc(Nc2ccc(SCCCN3CCOCC3)cc2)ncc1Cl | 8650
14 | 139 | 235 | 6.29 | 159 | 1.22 | – | CC(C)S(=O)(=O)c1ccccc1Nc1nc(Nc2ccc(CN3CCC(CO)CC3)cc2)ncc1Cl | 192
15 | 1920 | 622 | 7.42 | 9770 | > 10 | – | COC(=O)CCCCCNC(=O)C1CCN(c2ccc(Nc3ncc(Cl)c(Nc4ccccc4S(=O)(=O)C(C)C)n3)cc2)CC1 | 1980
16 | 2980 | 4710 | 2.95 | > 10000 | 1.67 | 0.315 | CCOP(=O)(Cc1ccc(Nc2ncc(Cl)c(Nc3ccccc3S(=O)(=O)C(C)C)n2)cc1)OCC | 7930
17 | 5940 | 1230 | 3.82 | > 10000 | > 10 | – | COC(=O)CCCCCNC(=O)C1CCN(CC(=O)Nc2ccc(Nc3ncc(Cl)c(Nc4ccccc4S(=O)(=O)C(C)C)n3)cc2)CC1 | 7010
18 | 288 | 459 | 0.494 | 497 | > 10 | – | CC(C)S(=O)(=O)c1ccccc1Nc1nc(Nc2ccc(CN3CCC(C(=O)NCCO)CC3)cc2)ncc1Cl | 978
19 | 3180 | 1230 | > 10 | > 10000 | > 10 | – | CC(C)S(=O)(=O)c1ccccc1Nc1nc(Nc2ccc(NC(=O)CN3CCC(C(=O)NCCCCCC(=O)NO)CC3)cc2)ncc1Cl | 5050
